Laboratory results reported in patent US6340581B1, “Biological production of products from waste gases” (Bioengineering Resources, Inc., priority 1992, dated 2002).
Like-named read-outs stand apart in the source and are kept apart here.

Experiments:
[1] = Acetic acid distribution coefficient study: solvents for recovering acetic acid from the permeate; format: physicochemical
[2] = Distribution coefficients of mixed solvents; format: physicochemical; conditions: oleyl alcohol 10 cc plus Cyc or TBP
[3] = aqueous phase after contact with the solvent

Molecule | Equilibrium Aqueous Acetic Acid Concentration [1, 3] [g/L] | Acetic Acid Distribution Coefficients ([1]; solvent vs aqueous phase) | Acetic Acid Distribution Coefficients [1] | Equilibrium Aqueous Acetic Acid Concentration [1] [g/L] | Distribution Coefficients [2]
CCCCC(CC)CO (centres unmarked) [2-ethyl-1-hexanol] | 3.308 | 0.77 | – | – | –
CC1CCCC(O)C1 (centres unmarked) [3-methylcyclohexanol] | 2.110 | 1.26 | – | – | –
ClC(Cl)Cl [Chloroform] | – | – | 0.09 | 5.128 | –
O=C1CCCCC1 [Cyclohexanone] | 2.702 | 1.66 | – | – | –
CCCCCCCCCC [Decane] | 5.968 | 0.08 | – | – | –
CCCCOP(=O)(O)OCCCC [Dibutyl phosphate] | – | – | 0.18 | 4.615 | –
CCCCCCCCCCCC [Dodecane] | 4.654 | 0.13 | – | – | –
CCCCCCCCCCCCOC(C)=O [Dodecyl acetate] | 5.787 | 0.15 | – | – | –
CCOC(C)=O [Ethyl acetate] | 4.550 | 0.41 | – | – | –
CCCC(=O)OCC [Ethyl butyrate] | 4.665 | 0.42 | – | – | –
CCCCCCCCCCCCCCCC [Hexadecane] | 5.866 | 1.13 | – | – | –
CCCCCC [Hexane] | – | – | 0.0 | 6.559 | –
CCCCCCCCO [Octanol] | 4.358 | 0.45 | – | – | –
CCCCCCCC/C=C\CCCCCCCCO [Oleyl alcohol] | 5.114 | 0.28 | – | – | 0.17
CCCCCCCCN(CCCCCCCC)CCCCCCCC [Trioctylamine] | 3.785 | 0.31 | – | – | –
CCCCCCCCCCCO [Undecyl alcohol] | 4.528 | 0.40 | – | – | –
Dexyl alcohol | 3.890 | 0.42 | – | – | –
